Results: ChEMBL document CHEMBL5236625, “New class of fused [3,2-b][1,2,4]triazolothiazoles for targeting glioma in vitro” (Bioorg Med Chem Lett, 2023)
pIC50: −log10 of the molar value. The source made the active and inactive calls. The calls are words filed in the database; no cut-off is given here.

How the values were obtained:
LN-18 [1] = assay: Cytotoxicity against human LN-18 cells assessed as cell viability measured upto 108 hrs by MTT assay; assay type: functional, cell-based; conditions: LN-18, 108 h
C6 [2] = assay: Cytotoxicity against rat C6 cells assessed as cell viability measured upto 108 hrs by MTT assay; assay type: functional, cell-based; conditions: C6, 108 h
[3] = Solubility in DMSO; assay type: physicochemical
LN-18 [4] = assay: Induction of apoptosis in human LN-18 cells assessed as increase in Bax expression at 10 to 100 uM by Western blot analysis; assay type: functional, cell-based; conditions: dose 10-100 µM
C6 [5] = assay: Inhibition of AKT phosphorylation at Ser473 in rat C6 cells by Western blot analysis; assay type: cell-based; conditions: dose 10-100 µM
LN-18 [6] = assay: Induction of cell cycle arrest in human LN-18 cells assessed as cell population in sub-G1 phase at 10 uM (reference value: 44%); assay type: functional
C6 [7] = assay: Inhibition of colony formation in rat C6 cells at 10 to 100 uM measured after 48 hrs by clonogenic assay; assay type: functional, cell-based; conditions: dose 10-100 µM
LN-18 [8] = assay: Inhibition of ERK phosphorylation in human LN-18 cells by Western blot analysis; assay type: cell-based; conditions: dose 10-100 µM
[9] = target: T1, Serine/threonine-protein kinase AKT (Homo sapiens) (UniProt P31751+Q9Y243+P31749); assay: Inhibition of AKT phosphorylation at Thr308 in human LN-18 cells by Western blot analysis; assay type: cell-based; conditions: dose 10-100 µM
T1 sequence (P31749 whole entry, looked up): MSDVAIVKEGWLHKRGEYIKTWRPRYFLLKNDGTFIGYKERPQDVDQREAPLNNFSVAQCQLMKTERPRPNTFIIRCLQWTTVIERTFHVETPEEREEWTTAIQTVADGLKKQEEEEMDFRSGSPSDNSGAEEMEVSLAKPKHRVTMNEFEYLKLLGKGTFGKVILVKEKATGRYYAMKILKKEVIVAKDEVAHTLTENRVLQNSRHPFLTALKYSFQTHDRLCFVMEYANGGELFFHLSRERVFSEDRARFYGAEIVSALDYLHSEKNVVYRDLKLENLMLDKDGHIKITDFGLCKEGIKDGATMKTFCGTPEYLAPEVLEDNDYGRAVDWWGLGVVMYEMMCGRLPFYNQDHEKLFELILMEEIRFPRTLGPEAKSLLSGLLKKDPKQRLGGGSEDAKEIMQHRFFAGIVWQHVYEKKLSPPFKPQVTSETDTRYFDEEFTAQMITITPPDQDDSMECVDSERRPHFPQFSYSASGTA
T1 sequence (P31751 whole entry, looked up): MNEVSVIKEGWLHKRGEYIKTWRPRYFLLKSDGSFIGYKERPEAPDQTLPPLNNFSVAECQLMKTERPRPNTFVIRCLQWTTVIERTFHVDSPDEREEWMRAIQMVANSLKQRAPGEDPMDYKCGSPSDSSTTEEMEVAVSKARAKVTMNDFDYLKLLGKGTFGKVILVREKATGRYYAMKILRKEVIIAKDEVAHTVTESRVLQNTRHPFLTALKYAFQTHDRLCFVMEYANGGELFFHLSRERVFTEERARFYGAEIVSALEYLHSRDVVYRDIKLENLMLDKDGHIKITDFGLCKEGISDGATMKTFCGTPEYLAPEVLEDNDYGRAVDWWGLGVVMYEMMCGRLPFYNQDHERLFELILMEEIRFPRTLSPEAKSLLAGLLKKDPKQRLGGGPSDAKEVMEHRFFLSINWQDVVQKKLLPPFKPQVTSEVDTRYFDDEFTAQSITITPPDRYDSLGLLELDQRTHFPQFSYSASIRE
T1 sequence (Q9Y243 whole entry, looked up): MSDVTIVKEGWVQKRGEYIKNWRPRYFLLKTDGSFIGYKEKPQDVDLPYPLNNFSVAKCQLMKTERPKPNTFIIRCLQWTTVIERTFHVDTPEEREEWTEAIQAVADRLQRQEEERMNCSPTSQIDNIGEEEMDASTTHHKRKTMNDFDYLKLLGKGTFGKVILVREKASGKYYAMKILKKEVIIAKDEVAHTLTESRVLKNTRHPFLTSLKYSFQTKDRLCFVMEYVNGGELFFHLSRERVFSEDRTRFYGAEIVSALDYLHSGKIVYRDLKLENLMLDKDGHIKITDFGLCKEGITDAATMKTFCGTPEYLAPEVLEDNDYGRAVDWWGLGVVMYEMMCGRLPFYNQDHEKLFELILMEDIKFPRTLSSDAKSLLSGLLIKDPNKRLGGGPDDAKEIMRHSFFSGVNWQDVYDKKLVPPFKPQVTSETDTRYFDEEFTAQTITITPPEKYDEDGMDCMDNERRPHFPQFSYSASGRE

LN-18 [10] = assay: Inhibition of colony formation in human LN-18 cells at 10 to 100 uM measured after 48 hrs by clonogenic assay; assay type: functional, cell-based; conditions: dose 10-100 µM
LN-18 [11] = assay: Antimigratory activity against human LN-18 cells assessed as rate of cell migration measured at 100 uM by wound healing assay (reference value: 24.46 um/hr); assay type: functional
C6 [12] = assay: Induction of cell cycle arrest in rat C6 cells assessed as cell population in sub-G1 phase at 10 uM (reference value: 60%); assay type: functional
LN-18 [13] = assay: Induction of apoptosis in human LN-18 cells assessed as reduction in IRE1 expression at 10 to 100 uM by Western blot analysis; assay type: functional, cell-based; conditions: dose 10-100 µM
LN-18 [14] = assay: Induction of apoptosis in human LN-18 cells assessed as reduction in XBP1 expression at 10 to 100 uM by Western blot analysis; assay type: functional, cell-based; conditions: dose 10-100 µM
C6 [15] = assay: Inhibition of AKT phosphorylation at Thr308 in rat C6 cells by Western blot analysis; assay type: cell-based; conditions: dose 10-100 µM
Rattus norvegicus = species on record: Rattus norvegicus; assay: Inhibition of ERK phosphorylation in rat C6 cells by Western blot analysis; assay type: cell-based; conditions: dose 50-100 µM
[16] = target: T1, Serine/threonine-protein kinase AKT (Homo sapiens); assay: Inhibition of AKT phosphorylation at Ser473 in human LN-18 cells by Western blot analysis; assay type: cell-based; conditions: dose 10-100 µM
C6 [17] = assay: Induction of apoptosis in rat C6 cells assessed as reduction in IRE1 expression at 10 to 100 uM by Western blot analysis; assay type: functional, cell-based; conditions: dose 10-100 µM
C6 [18] = assay: Induction of apoptosis in rat C6 cells assessed as cell population in […] at 50 to 100 uM (reference value: 2 to 7%); assay type: functional; conditions: dose 50-100 µM
C6 [19] = assay: Antimigratory activity against rat C6 cells assessed as rate of cell migration measured at 100 uM by wound healing assay (reference value: 21.95 um/hr); assay type: functional
C6 [20] = assay: Induction of apoptosis in rat C6 cells assessed as reduction in XBP1 expression at 10 to 100 uM by Western blot analysis; assay type: functional, cell-based; conditions: dose 10-100 µM
C6 [21] = assay: Induction of apoptosis in rat C6 cells assessed as increase in Bax expression at 10 to 100 uM by Western blot analysis; assay type: functional, cell-based; conditions: dose 10-100 µM
LN-18 [22] = assay: Induction of apoptosis in human LN-18 cells assessed as cell population in […] at 50 to 100 uM (reference value: 2 to 7%); assay type: functional; conditions: dose 50-100 µM
LN-18 [23] = assay: Induction of cell cycle arrest in human LN-18 cells assessed as cell population in G2-M phase at 10 uM (reference value: 39.4%); assay type: functional
C6 [24] = assay: Induction of cell cycle arrest in rat C6 cells assessed as cell population in G2-M phase at 10 uM (reference value: 19.3%); assay type: functional

With `COc1ccc(-c2csc3nc(/N=C/c4ccc(Cl)cc4Cl)nn23)cc1` the pIC50 (LN-18 [1]) was 4.67, the pIC50 (C6 [2]) was 5.12 and the solubility [3] was “Insoluble”.
For `O=[N+]([O-])c1ccc(-c2csc3nc(/N=C/c4ccc(Cl)cc4)nn23)cc1`, the Activity (LN-18 [4]) was “Active”, the inhibition (C6 [5]) was “Dose-Dependent Effect” and the pIC50 (LN-18 [1]) was 4.90. For the same compound, the Activity (LN-18 [6]) was 50%, the inhibition (C6 [7]) was “Active” and the inhibition (LN-18 [8]) was “Dose-Dependent Effect”. The inhibition [9] was “Dose-Dependent Effect”, the inhibition (LN-18 [10]) was “Active” and the Activity (LN-18 [11]) was 15.04 um/hr. For the same compound, the Activity (C6 [12]) was 66.5%, the Activity (LN-18 [13]) was “Active” and the Activity (LN-18 [14]) was “Active”. For the same compound, the inhibition (C6 [15]) was “Dose-Dependent Effect”, the pIC50 (C6 [2]) was 5.06 and the inhibition (Rattus norvegicus) was “Dose-Dependent Effect”. For the same compound, the inhibition [16] was “Dose-Dependent Effect”, the Activity (C6 [17]) was “Active” and the Activity (C6 [18]) was 35%. For the same compound, the Activity (C6 [19]) was 13.6 um/hr, the Activity (C6 [20]) was “Active” and the Activity (C6 [21]) was “Active”. The Activity (LN-18 [22]) was 35%.
For `O=C1c2ccccc2C(=O)N1c1nc2scc(-c3ccc(-c4ccccc4)cc3)n2n1`, the pIC50 (LN-18 [1]) was 5.05, the pIC50 (C6 [2]) was 5.24 and the solubility [3] was “Insoluble”.
In the case of `O=C1c2ccccc2C(=O)N1c1nc2scc(-c3ccc(Br)cc3)n2n1`, the Activity (LN-18 [4]) was “Active”, the inhibition (C6 [5]) was “Dose-Dependent Effect” and the pIC50 (LN-18 [1]) was 4.90. For the same compound, the inhibition (C6 [7]) was “Active”, the inhibition (LN-18 [8]) was “Dose-Dependent Effect” and the inhibition [9] was “Dose-Dependent Effect”. For the same compound, the inhibition (LN-18 [10]) was “Active”, the Activity (LN-18 [11]) was 14.36 um/hr and the Activity (LN-18 [13]) was “Active”. The Activity (LN-18 [14]) was “Active”, the Activity (LN-18 [23]) was 54.9% and the inhibition (C6 [15]) was “Dose-Dependent Effect”. For the same compound, the pIC50 (C6 [2]) was 5.09, the inhibition (Rattus norvegicus) was “Dose-Dependent Effect” and the inhibition [16] was “Dose-Dependent Effect”. The Activity (C6 [17]) was “Active”, the Activity (C6 [18]) was 47% and the Activity (C6 [19]) was 8.96 um/hr. For the same compound, the Activity (C6 [20]) was “Active”, the Activity (C6 [24]) was 31.9% and the Activity (C6 [21]) was “Active”. It also gave an Activity (LN-18 [22]) of 47%.
